Data on 1 compound can be found in ChEMBL document CHEMBL1157271, “Maprouneacin, a new daphnane diterpenoid with potent antihyperglycemic activity from Maprounea africana” (1999).

Holding throughout (assay type): functional
Test [1] deals with Mus musculus. Put plainly: Antihyperglycemic activity in NIDDM db/db mouse model assessed as body weight per mouse at 0.5 mg/kg, qd after 24 hrs.
The subject of test [2] is Mus musculus. Briefly: Antihyperglycemic activity in NIDDM db/db mouse model assessed as change in plasma glucose level at 0.5 mg/kg, qd after 27 hrs relative to pre-dosed control.
The test system of test [3] is Mus musculus. Briefly: Antihyperglycemic activity in NIDDM db/db mouse model assessed as change in plasma glucose level at 0.5 mg/kg, qd after 3 hrs relative to pre-dosed control.
For test [4], the system named is Mus musculus. Briefly: Antihyperglycemic activity in NIDDM db/db mouse model assessed as food intake per mouse at 0.5 mg/kg, qd.

As to `CCCCC/C=C/C=C/[C@]12O[C@@H]3[C@@H]4[C@@H]5O[C@]5(CO)[C@@H](O)[C@]5(O)C(=O)C(C)=C[C@H]5[C@@]4(O1)[C@H](COC(=O)CC(C)C)[C@H](OC(=O)CC(C)C)[C@]3([C@]1(C)CO1)O2` [MAPROUNEACIN], the Activity was 37.8 g with Mus musculus [1], -246 mg/dL in the test with Mus musculus [2], -254 mg/dL in the test on Mus musculus [3] and 0.1 g in the test with Mus musculus [4].
